Among the data in PubChem BioAssay (NCI) are TGI and GI50 values, retold here.

Some test systems named below: BT-549 breast; PC-3 prostate; MDA-N; T-47D breast; MDA-MB-231 breast; MDA-MB-435; RXF-631 renal; DMS 114 small cell lung; DMS 273 small cell lung.
Common to all, as to test: NCI tumour cell line growth inhibition, 48 h

Values joined by “and” are separate entries in the source; they are usually repeats but may differ in a detail not shown here. Equal entries are not always repeated.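 Assay format: 96-well plates, 48-hour exposure. The concentration for 50% growth inhibition is given as GI50. TGI is the concentration that stops growth completely.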 Where only a bound is given, the exact number is not on record here.

For `C/C=C/C=C\C1OC(O)([C@H](CC)C(=O)NC/C=C/C=C(\C)[C@H](OC)C(C)C2OC(\C=C/C=C/C=C(\C)C(=O)c3c(O)ccn(C)c3=O)[C@H](O)[C@@H]2O)C(O)C(O)C1(C)C` (stereo not given in full), the TGI in the assay with BT-549 breast, in the assay on PC-3 prostate, in the assay with MDA-N, in the assay with T-47D breast, with MDA-MB-231 breast and with MDA-MB-435 was over 100 µM each time.

Take `C=CCN=C1NC(=O)C(CC(=O)Nc2ccc(C)cc2)S1` (stereo not given): the TGI with RXF-631 renal, with DMS 114 small cell lung and in the assay on DMS 273 small cell lung was over 100 µM in each case.

Turning to `COC(=O)C(CC(=O)Nc1ccc(Cl)c(Cl)c1)C(=O)C(=O)NC1C2CC3CC(C2)CC1C3` (stereo not given), the TGI with DMS 114 small cell lung and in the assay on DMS 273 small cell lung was over 100 µM in each case.

In the case of `N#CC(C#N)=C1SCC(=O)CS1`, the TGI with RXF-631 renal, in the assay with DMS 114 small cell lung and in the assay on DMS 273 small cell lung was over 100 µM each time.

With `CCOC1C=CCCO1` (stereo not given), the TGI in the assay with PC-3 prostate, in the assay with MDA-N, with T-47D breast, in the assay on MDA-MB-231 breast and in the assay with MDA-MB-435 was over 100 µM in each case.

As for `COc1cc(C(=O)CC2(O)C(=O)Nc3c(Cl)cc(Cl)cc32)ccc1O` (stereo not given), the TGI with RXF-631 renal, in the assay on DMS 114 small cell lung and in the assay on DMS 273 small cell lung was over 100 µM in each case.

For the compound `NC(CCSC(F)F)C(=O)O` (stereo not given), the TGI in the assay with DMS 114 small cell lung and in the assay with DMS 273 small cell lung was over 100 µM each time.

Regarding `Cc1nn(-c2nc3ccccc3[nH]2)c2c1C(c1ccc3c(c1)OCO3)CC(=O)N2` (stereo not given), the GI50 in the assay with BT-549 breast was 3.26 µM; with PC-3 prostate it was 3.16 µM; with T-47D breast, 3.61 µM; in the assay with MDA-MB-231 breast, 2.18 µM; in the assay with MDA-MB-435 it was 2.46 µM. Moreover, the TGI with BT-549 breast is 14.2 µM; in the assay with PC-3 prostate, 22 µM; in the assay on T-47D breast it was over 39.6 µM; with MDA-MB-231 breast, 5.22 µM; in the assay with MDA-MB-435, 6.3 µM.

Turning to `COc1cc(/C=C/C(=O)c2c(C)n([O-])c3ccc(Cl)cc3[n+]2=O)cc(OC)c1OC`, the GI50 is 18.7 µM in the assay with BT-549 breast; 27.5 µM with PC-3 prostate; 40.5 µM in the assay with T-47D breast; 14.7 µM in the assay with MDA-MB-231 breast; over 100 µM in the assay with MDA-MB-435. Further, the TGI in the assay with BT-549 breast was 42.5 µM; in the assay with PC-3 prostate it was over 100 µM; in the assay on T-47D breast, over 100 µM; in the assay with MDA-MB-231 breast, 96.6 µM; in the assay on MDA-MB-435, over 100 µM.

For `Clc1ccc2c(c1)-c1ccccc1C1=NCCN12`, the GI50 is 2.41 µM in the assay with BT-549 breast; 2.03 µM with PC-3 prostate; 2.73 µM in the assay on T-47D breast; 2.69 µM in the assay with MDA-MB-231 breast; 2.04 µM in the assay on MDA-MB-435. For the same compound, the TGI amounted to 9.89 µM with BT-549 breast; 6.83 µM in the assay on PC-3 prostate; 8.27 µM with T-47D breast; 12.4 µM in the assay with MDA-MB-231 breast; 5.76 µM in the assay with MDA-MB-435.

For `O=C(/C=C1/NC(=O)CS1)Nc1ccccc1`, the TGI in the assay with RXF-631 renal, in the assay on DMS 114 small cell lung and with DMS 273 small cell lung was over 100 µM in each case.

In the case of `O=C1/C(=C/c2ccc(Cl)cc2)COc2ccc(O)c(O)c21`, the GI50 was 1.77 µM in the assay with BT-549 breast; 0.501 µM in the assay with PC-3 prostate; 1.2 µM in the assay with T-47D breast; 1.11 µM in the assay on MDA-MB-231 breast; 0.702 µM in the assay with MDA-MB-435. In addition, the TGI in the assay on BT-549 breast worked out at 4.04 µM; in the assay on PC-3 prostate, 3.48 µM; in the assay on T-47D breast it was 2.98 µM; with MDA-MB-231 breast it was 3.25 µM; in the assay on MDA-MB-435, 2.63 µM.

Take `COC(=O)[C@@H](C)C[C@H](Cc1ccccc1)NC(=O)c1csc([C@@H](C[C@H](C(C)C)N(C)C(=O)C2(NC(=O)[C@H]3CCCCN3C)CC2)OC(C)=O)n1`: the GI50 with BT-549 breast was 0.00549 µM and < 0.00333 µM; in the assay with PC-3 prostate, 0.00523 µM and 0.00333 µM; with T-47D breast, 0.00333 µM; with MDA-MB-231 breast, 0.00681 µM and 0.00333 µM; with MDA-MB-435 it was 0.000405 µM and < 0.00333 µM. In addition, the TGI is under 0.00333 µM in the assay on BT-549 breast; over 33.3 µM in the assay with PC-3 prostate; over 33.3 µM with T-47D breast; 4.36 µM in the assay with MDA-MB-231 breast; 0.00273 µM and < 0.00333 µM with MDA-MB-435.

Compound `COc1cc2cccc(NC(=O)c3cc(OC)c(OC)c(OC)c3Br)c2cc1OC` gave a TGI in the assay with DMS 114 small cell lung of 12.8 µM.

Consider `C[C@@H]1C[C@@]2(O[C@@H]2C)C(=O)O[C@@H]2CCN3CC=C(COC(=O)[C@]1(C)O)[C@H]23`, for which the TGI in the assay with BT-549 breast, with PC-3 prostate, with MDA-N, in the assay with T-47D breast, in the assay with MDA-MB-231 breast and with MDA-MB-435 was over 100 µM each time.

Turning to `O=C1C[C@H]2CC3(CC[C@H]2CN1)OCCO3`, the TGI in the assay on DMS 273 small cell lung is over 100 µM.

As to `O=C(NCP(=O)(O)O)c1cccnc1`, the TGI in the assay with BT-549 breast, in the assay with PC-3 prostate, in the assay with MDA-N, in the assay on T-47D breast, in the assay on MDA-MB-231 breast and in the assay on MDA-MB-435 was over 100 µM in each case.

As for `Cc1cc(=O)oc2cc(OCc3nc4ccccc4c(=O)[nH]3)ccc12`, the TGI with DMS 114 small cell lung and in the assay with DMS 273 small cell lung was over 100 µM in each case.

As for `CCOC(=O)NC(=O)c1cn(CCN2CCN(C(=O)NCCCCCCNC(=O)N3CCN(CCn4cc(C(=O)NC(=O)OCC)c(=O)n(CCN(CC)CC)c4=O)CC3)CC2)c(=O)n(CCC(CC)CC)c1=O`, the TGI in the assay on DMS 114 small cell lung and with DMS 273 small cell lung was over 100 µM each time.

With `NCCCCN(Cc1nc2ccccc2[nH]1)[C@H]1CCCc2cccnc21`, the GI50 with BT-549 breast is 22.8 µM; in the assay with PC-3 prostate, 5.52 µM; in the assay on T-47D breast it was 21.4 µM; in the assay on MDA-MB-231 breast, 8.88 µM; in the assay with MDA-MB-435, 17.4 µM. For the same compound, the TGI with BT-549 breast is over 100 µM; in the assay on PC-3 prostate, over 93.2 µM; with T-47D breast it was over 100 µM; in the assay on MDA-MB-231 breast it was 56.3 µM; with MDA-MB-435 it was 54.6 µM.
